According to DBAASP:
In brackets after ≈: the same amount, converted by molar mass.

Experiments:
Assay in all cases: ≥ marks a high value that may be exact or a test limit, other limits are often not marked, values filed in µg/mL are converted to µM
[1] = test system: Staphylococcus aureus BCRC 10780
[2] = test system: Staphylococcus sp. BCRC 10451
[3] = test system: Vibrio harveyi BCRC 13812
[4] = test system: Vibrio alginolyticus
[5] = test system: Streptococcus pneumoniae BCRC 10794
[6] = test system: Escherichia coli ATCC 25922
[7] = test system: Pseudomonas aeruginosa ATCC 27853
[8] = test system: Staphylococcus aureus ATCC 33591
[9] = test system: Klebsiella pneumoniae ATCC 700603
[10] = test system: Staphylococcus aureus ATCC 700699
[11] = test system: Staphylococcus aureus ATCC 29213
[12] = test system: Bacillus subtilis var. niger ATCC 9372
[13] = test system: Bacillus anthracis Sterne 34F2
[14] = test system: Escherichia coli K91BK
[15] = test system: Burkholderia thailandensis
[16] = test system: Bacillus subtilis ATCC 9372
[17] = test system: Pseudomonas aeruginosa CGMCC 1.860
[18] = test system: Bacillus cereus AS1.126
[19] = test system: Staphylococcus epidermidis CICC 23664
[20] = test system: Klebsiella pneumoniae subsp. pneumoniae CGMCC 1.176
[21] = test system: Enterococcus faecalis CGMCC 1.595
[22] = test system: Staphylococcus aureus AS1.72
[23] = test system: Enterobacter cloacae CGMCC 1.58
[24] = test system: Proteus mirabilis CICC 22931
[25] = test system: Escherichia coli AS1.349
[26] = test system: Enterococcus faecium CGMCC 1.2334
[27] = test system: Acinetobacter baumannii CICC 22934
[28] = test system: Lactococcus lactis AS1.1690
[29] = test system: Klebsiella aerogenes CGMCC 1.876
[30] = test system: Cronobacter sakazakii DPC 6440
[31] = test system: Listeria monocytogenes LO28

Question: `CC[C@H](C)[C@H](NC(=O)[C@H](Cc1ccccc1)NC(C)=O)C(=O)N[C@@H](Cc1ccccc1)C(=O)N[C@@H](Cc1cnc[nH]1)C(=O)N[C@H](C(=O)N[C@H](C(=O)N[C@@H](CCCCN)C(=O)NCC(=O)N[C@@H](CC(C)C)C(=O)N[C@@H](Cc1ccccc1)C(N)=O)[C@@H](C)CC)[C@@H](C)CC` [FIFHIIKGLF] was tested. Which MIC [1] did it give?
Answer: 5.06 µM (≈ 6.46 µg/mL)

Question: And the MIC [2]?
Answer: 5.06 µM (≈ 6.46 µg/mL)

Question: And the MIC [3]?
Answer: 5.06 µM (≈ 6.46 µg/mL)

Question: What about the MIC [4] of the same compound?
Answer: 5.06 µM (≈ 6.46 µg/mL)

Question: For `CC[C@H](C)[C@H](NC(=O)[C@H](Cc1ccccc1)NC(=O)CNC(C)=O)C(=O)N[C@@H](Cc1ccccc1)C(=O)N[C@@H](Cc1cnc[nH]1)C(N)=O` [GFIFH], which MIC [5] is on record?
Answer: ≥ 161 µM

Question: And the MIC [1]?
Answer: ≥ 161 µM

Question: With `CC[C@H](C)[C@H](NC(=O)[C@H](CC(=O)O)NC(=O)[C@H](CCCCN)NC(=O)[C@H](C)NC(=O)[C@H](C)NC(=O)CNC(=O)[C@H](CCCCN)NC(=O)[C@H](C)NC(=O)[C@@H](NC(=O)[C@H](CC(=O)O)NC(=O)[C@@H](NC(=O)[C@@H](NC(=O)CN)C(C)C)C(C)C)[C@@H](C)CC)C(=O)N[C@@H](C)C(=O)NCC(=O)N[C@@H](Cc1cnc[nH]1)C(=O)N[C@@H](CC(C)C)C(=O)N[C@@H](C)C(=O)N[C@@H](CO)C(=O)N[C@@H](CCCCN)C(=O)N[C@H](C(=O)N[C@@H](CCSC)C(=O)N[C@@H](CC(N)=O)C(=O)N[C@@H](CCCCN)C(=O)N[C@@H](CC(C)C)C(N)=O)C(C)C` [GVVDIAKGAAKDIAGHLASKVMNKL] as the compound, how does the MIC [6] read?
Answer: > 100 µM

Question: What about the MIC [7] of the same compound?
Answer: > 100 µM

Question: What about the MIC [8] of the same compound?
Answer: ≥ 100 µM

Question: What about the MIC [9] of the same compound?
Answer: > 100 µM

Question: And the MIC [10]?
Answer: ≥ 100 µM

Question: What about the MIC [11] of the same compound?
Answer: > 100 µM

Question: What does the source list for `CC(=O)NCC(=O)N[C@@H](Cc1c[nH]c2ccccc12)C(=O)NCC(=O)N[C@@H](CO)C(=O)N[C@@H](Cc1ccccc1)C(=O)N[C@@H](Cc1ccccc1)C(=O)N[C@@H](CCCCN)C(=O)N[C@@H](CCCCN)C(=O)N[C@@H](C)C(=O)N[C@@H](C)C(=O)N[C@@H](Cc1cnc[nH]1)C(=O)N[C@H](C(=O)NCC(=O)N[C@@H](CCCCN)C(=O)N[C@@H](Cc1cnc[nH]1)C(=O)N[C@H](C(=O)NCC(=O)N[C@@H](CCCCN)C(=O)N[C@@H](C)C(=O)N[C@@H](C)C(=O)N[C@@H](CC(C)C)C(=O)N[C@H](C(=O)N[C@@H](Cc1cnc[nH]1)C(=O)N[C@@H](Cc1ccc(O)cc1)C(=O)N[C@@H](CC(C)C)C(N)=O)[C@@H](C)O)C(C)C)C(C)C` [GWGSFFKKAAHVGKHVGKAALTHYL]?
Answer: MIC [12]: 17.7 µM (≈ 48.7 µg/mL); MIC [13]: ≥ 79.4 µM; MIC [14]: ≥ 100 µM

Question: What does the source list for `CC[C@H](C)[C@H](NC(=O)[C@H](CCCN=C(N)N)NC(=O)[C@H](CC(C)C)NC(=O)[C@H](CCC(N)=O)NC(=O)[C@H](CCCCN)NC(=O)[C@H](CC(C)C)NC(=O)[C@H](CC(C)C)NC(=O)[C@H](CC(C)C)NC(=O)[C@@H](NC(=O)[C@H](CCCCN)NC(=O)[C@H](CC(=O)O)NC(=O)[C@H](C)NC(=O)[C@@H](NC(=O)[C@H](CCCCN)NC(=O)[C@H](CCCCN)NC(=O)[C@H](CC(=O)O)NC(=O)[C@@H](NC(=O)[C@H](Cc1cnc[nH]1)NC(C)=O)C(C)C)C(C)C)C(C)C)C(=O)N[C@@H](CCSC)C(=O)N[C@@H](CCCN=C(N)N)C(=O)N[C@@H](CC(C)C)C(=O)N[C@@H](CC(C)C)C(=O)N[C@H](C(=O)N[C@@H](CCCN=C(N)N)C(=O)N[C@@H](CC(C)C)C(N)=O)[C@@H](C)O` [HVDKKVADKVLLLKQLRIMRLLTRL]?
Answer: MIC [15]: ≥ 50 µM; MIC [13]: ≥ 35 µM; MIC [16]: 16 µM (≈ 48.7 µg/mL)

Question: How did the MIC [17] turn out when `CC[C@H](C)[C@H](N)C(=O)N[C@@H](CCCCN)C(=O)N[C@@H](CCCCN)C(=O)N[C@H](C(=O)N[C@@H](Cc1c[nH]c2ccccc12)C(=O)N[C@@H](CO)C(=O)N[C@@H](CCCCN)C(=O)N[C@H](C(=O)N[C@@H](CCCCN)C(=O)N[C@@H](CCCCN)C(=O)N[C@@H](Cc1c[nH]c2ccccc12)C(=O)N[C@@H](CC(C)C)C(=O)N[C@@H](CCCCN)C(=O)O)[C@@H](C)CC)[C@@H](C)CC` [IKKIWSKIKKWLK] was run?
Answer: 15.6 µM (≈ 26.5 µg/mL)

Question: And the MIC [18]?
Answer: 18.8 µM (≈ 31.9 µg/mL)

Question: What about the MIC [19] of the same compound?
Answer: 2.5 µM (≈ 4.25 µg/mL)

Question: And the MIC [20]?
Answer: ≥ 100 µM

Question: And the MIC [21]?
Answer: 2.5 µM (≈ 4.25 µg/mL)

Question: What about the MIC [22] of the same compound?
Answer: 2.5 µM (≈ 4.25 µg/mL)

Question: And the MIC [23]?
Answer: ≥ 100 µM

Question: And the MIC [24]?
Answer: ≥ 100 µM

Question: What about the MIC [25] of the same compound?
Answer: 2.5 µM (≈ 4.25 µg/mL)

Question: And the MIC [26]?
Answer: 5 µM (≈ 8.5 µg/mL)

Question: `CC[C@H](C)[C@H](NC(=O)CNC(=O)[C@H](CCCCN)NC(=O)[C@H](CCCN=C(N)N)NC(=O)[C@@H](NC(=O)[C@@H](NC(=O)[C@H](CCCN=C(N)N)NC(=O)[C@H](CCCN=C(N)N)NC(=O)[C@H](CC(C)C)NC(=O)[C@H](CC(N)=O)NC(=O)[C@H](CCCCN)NC(C)=O)[C@@H](C)CC)[C@@H](C)CC)C(=O)N[C@@H](Cc1cnc[nH]1)C(=O)N[C@H](C(=O)N[C@H](C(=O)N[C@@H](CCCCN)C(=O)N[C@@H](CCCCN)C(=O)N[C@@H](Cc1ccc(O)cc1)C(=O)NCC(N)=O)[C@@H](C)CC)[C@@H](C)CC` [KNLRRIIRKGIHIIKKYG] was tested. Which MIC [12] did it give?
Answer: 12.5 µM (≈ 28.1 µg/mL)

Question: What about the MIC [15] of the same compound?
Answer: ≥ 100 µM

Question: What about the MIC [13] of the same compound?
Answer: ≥ 100 µM

Question: What about the MIC [14] of the same compound?
Answer: ≥ 100 µM

Question: `CC(C)[C@H](NC(=O)[C@H](CCCCN)NC(=O)[C@@H](N)CO)C(=O)N[C@@H](Cc1c[nH]c2ccccc12)C(=O)N[C@@H](CCCN=C(N)N)C(=O)N[C@@H](Cc1cnc[nH]1)C(=O)N[C@@H](Cc1c[nH]c2ccccc12)C(=O)N[C@@H](CCCN=C(N)N)C(=O)N[C@@H](CCCN=C(N)N)C(=O)N[C@@H](Cc1ccccc1)C(=O)N[C@@H](Cc1c[nH]c2ccccc12)C(=O)N[C@@H](Cc1cnc[nH]1)C(=O)N[C@@H](CCCN=C(N)N)C(=O)N[C@@H](C)C(=O)N[C@@H](Cc1cnc[nH]1)C(=O)N[C@@H](CCCN=C(N)N)C(=O)N[C@@H](CCCCN)C(=O)N[C@@H](CCCCN)C(=O)O` [SKVWRHWRRFWHRAHRKK] was tested. Which MIC [17] did it give?
Answer: 1.59 µM (≈ 4.07 µg/mL)

Question: And the MIC [18]?
Answer: 3.91 µM (≈ 10 µg/mL)

Question: And the MIC [19]?
Answer: 7 µM (≈ 17.9 µg/mL)

Question: What about the MIC [20] of the same compound?
Answer: ≥ 100 µM

Question: What about the MIC [27] of the same compound?
Answer: 7.81 µM (≈ 20 µg/mL)

Question: What about the MIC [21] of the same compound?
Answer: 1.81 µM (≈ 4.63 µg/mL)

Question: And the MIC [22]?
Answer: 3.86 µM (≈ 9.87 µg/mL)

Question: And the MIC [23]?
Answer: ≥ 100 µM

Question: And the MIC [28]?
Answer: 1.98 µM (≈ 5.06 µg/mL)

Question: And the MIC [25]?
Answer: 6.25 µM (≈ 16 µg/mL)

Question: What about the MIC [26] of the same compound?
Answer: 2.9 µM (≈ 7.42 µg/mL)

Question: And the MIC [29]?
Answer: ≥ 100 µM

Question: How did the MIC [30] turn out when `CC[C@H](C)[C@H](NC(=O)[C@@H](N)Cc1c[nH]c2ccccc12)C(=O)N[C@@H](CCC(N)=O)C(=O)N1CCC[C@H]1C(=O)N[C@@H](CCCCN)C(=O)N[C@H](C(=O)N[C@@H](CCCCN)C(=O)N[C@@H](C)C(=O)N[C@H](C(=O)N1CCC[C@H]1C(=O)N[C@@H](Cc1ccc(O)cc1)C(=O)N[C@H](C(=O)N[C@@H](CCCN=C(N)N)C(=O)N[C@@H](Cc1ccc(O)cc1)C(=O)N[C@@H](CC(C)C)C(=O)O)C(C)C)[C@@H](C)CC)[C@@H](C)O` [WIQPKTKAIPYVRYL] was run?
Answer: ≥ 78.1 µM

Question: And the MIC [31]?
Answer: 19.5 µM (≈ 36.6 µg/mL)

Question: Which results are given for `CC[C@H](C)[C@H](NC(=O)[C@@H](N)Cc1c[nH]c2ccccc12)C(=O)N[C@@H](CCC(N)=O)C(=O)N1CCC[C@H]1C(=O)N[C@@H](CCCCN)C(=O)N[C@H](C(=O)N[C@@H](CCCCN)C(=O)N[C@H](C(=O)N[C@H](C(=O)N1CCC[C@H]1C(=O)N[C@@H](Cc1ccc(O)cc1)C(=O)N[C@H](C(=O)O)C(C)C)[C@@H](C)CC)C(C)C)[C@@H](C)O` [WIQPKTKVIPYV]?
Answer: MIC [30]: ≥ 625 µM; MIC [31]: ≥ 156 µM
